In patent publication US20210341496A1, “Systems and Methods for Detecting or Monitoring Insulin” (The Florida State University Research Foundation, Inc., priority 2020, published 2021):

System: murine islets
Assay: Synchronization of GSIS from grouped islets by periodic CCh pulses
Type: cell-based
Details: 5 islets, constant 11 mM glucose, 30 s every 5 min
Description: CCh, an M3R agonist, synchronizes glucose-induced islet activity as measured by synchronized oscillations of [Ca^2+]i levels. Because no recording of insulin release has been reported after delivery of CCh pulses, synchronized hormone secretion had not previously been verified. Using the newly-developed anisotropy method, it was tested whether GSIS from grouped islets can be entrained during periodic application of CCh.
For this experiment, reagent reservoirs connected to inlets 1 and 2 contained 11 mM glucose and 10 μM CCh in 11 mM glucose, respectively. A group of 5 islets were loaded into the islet chamber that had been filled with 11 mM glucose. After sealing the chamber, islets were continuously perfused with constant 11 mM glucose from inlet 1. CCh pulses were generated by switching the flow from inlet 1 to inlet 2. Pulse profiles consisted of 5 pulses (denoted by ‘x’ in FIG. 10A and FIG. 10B) each delivered for 30 s every 5 min. Considering broadening of each pulse (FIG. 3C), islets were exposed to an effective [CCh] of 4.7 μM.
In FIG. 10A and FIG. 10B, the glucose level remained constant at 11 mM. In the islet chamber during each experiment were 5 islets. In FIG. 10A, GSIS was synchronized by a train of 5 CCh pulses. Each 30 second pulse, ‘x’, was delivered every 5 minutes from 5 to 25 minutes. Numbered insulin peaks highlight oscillations likely stimulated by a CCh pulse. […]

Structure (SMILES): C[N+](C)(C)CCOC(N)=O [CCh, carbachol]
- insulin spikes after CCh pulses, average of final 3 spikes (5 pulses of 10 μM CCh (effective 4.7 μM)): 78±12 pg min^−1 islet^−1
- synchronization of GSIS (train of 5 CCh pulses): synchronized
